According to PubChem BioAssay AID330 (DTP/NCI, 2004):
Inconclusive results and toxic doses are left out.

Tested on: P388 leukemia ip, CD2F1 mice, survival T/C
Assay: NCI In Vivo Anticancer Drug Screen. Data for tumor model P388 Leukemia (intraperitoneal) in CD2F1 (CDF1) mice
Settings: endpoint: median survival time, higher = longer survival
Outline: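 Mice carrying the transplanted tumor received test compound or vehicle. Survival was recorded in each group, and the value is the treated-group measurement divided by that of the vehicle-treated control group.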

[1] = dose: 50.0 mg/kg/injection, schedule: Q01DX009 (ip), vehicle: saline with Tween-80
[2] = dose: 50.0 mg/kg/injection, schedule: Q01DX009 (ip), vehicle: saline
[3] = dose: 100.0 mg/kg/injection, schedule: Q01DX009 (ip), vehicle: saline
[4] = dose: 200.0 mg/kg/injection, schedule: Q01DX009 (ip), vehicle: saline
[5] = dose: 100.0 mg/kg/injection, schedule: Q01DX009 (ip), vehicle: saline with Tween-80
[6] = dose: 200.0 mg/kg/injection, schedule: Q01DX009 (ip), vehicle: saline with Tween-80
[7] = dose: 50.0 mg/kg/injection, schedule: Q01DX009 (ip), vehicle: Klucel (hydroxypropylcellulose) (HPC)
[8] = dose: 100.0 mg/kg/injection, schedule: Q01DX009 (ip), vehicle: Klucel (hydroxypropylcellulose) (HPC)
[9] = dose: 200.0 mg/kg/injection, schedule: Q01DX009 (ip), vehicle: Klucel (hydroxypropylcellulose) (HPC)
[10] = dose: 50.0 mg/kg/injection, schedule: Q01DX005 (ip), vehicle: Klucel (hydroxypropylcellulose) (HPC)
[11] = dose: 100.0 mg/kg/injection, schedule: Q01DX005 (ip), vehicle: Klucel (hydroxypropylcellulose) (HPC)
[12] = dose: 60.0 mg/kg/injection, schedule: Q01DX005 (ip), vehicle: saline with Tween-80
[13] = dose: 120.0 mg/kg/injection, schedule: Q01DX005 (ip), vehicle: saline with Tween-80

O=[N+]([O-])c1ccc(N2CCN(c3ccccc3)CC2)c2c1no[n+]2[O-]
T/C (dose: 37.5 mg/kg/injection, schedule: Q04DX003 (ip), vehicle: saline): 105 % of control | T/C (dose: 37.5 mg/kg/injection, schedule: Q04DX003 (ip), vehicle: suspension in saline): 104 % of control | T/C (dose: 75.0 mg/kg/injection, schedule: Q04DX003 (ip), vehicle: saline): 100 % of control | T/C (dose: 75.0 mg/kg/injection, schedule: Q04DX003 (ip), vehicle: suspension in saline): 100 % of control | T/C (dose: 150.0 mg/kg/injection, schedule: Q04DX003 (ip), vehicle: saline): 97 % of control | T/C (dose: 150.0 mg/kg/injection, schedule: Q04DX003 (ip), vehicle: suspension in saline): 111 % of control | T/C (dose: 300.0 mg/kg/injection, schedule: Q04DX003 (ip), vehicle: saline): 101 % of control | T/C (dose: 300.0 mg/kg/injection, schedule: Q04DX003 (ip), vehicle: suspension in saline): 104 % of control

CN(C)c1ccc(N(C)C)c(C(O)(c2ccccc2)c2ccccc2)c1
T/C [1]: 88 % of control

O=c1[nH]c(-c2ccccc2)nc2nc3ccc([N+](=O)[O-])cc3[n+]([O-])c12
T/C [2]: 93 % of control | T/C [3]: 92 % of control | T/C [4]: 97 % of control

O=C(N/N=C/c1ccccc1F)c1ccncc1
T/C [1]: 98 % of control | T/C [5]: 97 % of control | T/C [6]: 104 % of control

NNC(=O)c1ccc(N)cc1
T/C [1]: 100 % of control | T/C (dose: 50.0 mg/kg/injection, schedule: Q04DX003 (ip), vehicle: saline with Tween-80): 104 % of control | T/C [5]: 100 % of control | T/C (dose: 100.0 mg/kg/injection, schedule: Q04DX003 (ip), vehicle: saline with Tween-80): 104 % of control | T/C [6]: 100 % of control

O=NN(C(=O)NC1CC1)C1CC1
T/C (dose: 25.0 mg/kg/injection, schedule: Q01DX001 (ip), vehicle: water): 111 % of control | T/C (dose: 50.0 mg/kg/injection, schedule: Q01DX001 (ip), vehicle: water): 102 % of control | T/C (dose: 100.0 mg/kg/injection, schedule: Q01DX001 (ip), vehicle: water): 109 % of control

O=C(NC(COC1OC(CO)C(O)C(O)C1O)C(O)c1ccccc1)c1ccccc1 (configuration not stated)
T/C [7]: 107 % of control | T/C [2]: 90 % of control | T/C [8]: 108 % of control | T/C [3]: 102 % of control | T/C [9]: 113 % of control | T/C [4]: 108 % of control

CC1(C)N=C(N)N=C(N)N1c1cccc(Cl)c1Cl
T/C (dose: 5.0 mg/kg/injection, schedule: Q01DX009 (ip), vehicle: saline with Tween-80): 100 % of control | T/C (dose: 5.0 mg/kg/injection, schedule: Q04DX003 (ip), vehicle: saline): 95 % of control | T/C (dose: 10.0 mg/kg/injection, schedule: Q01DX009 (ip), vehicle: saline with Tween-80): 108 % of control | T/C (dose: 10.0 mg/kg/injection, schedule: Q04DX003 (ip), vehicle: saline): 95 % of control | T/C (dose: 20.0 mg/kg/injection, schedule: Q01DX009 (ip), vehicle: saline with Tween-80): 121 % of control | T/C (dose: 20.0 mg/kg/injection, schedule: Q04DX003 (ip), vehicle: saline): 116 % of control

COC(=O)[C@@]12OC[C@]34[C@H]([C@@H](O)[C@@H]1O)[C@@]1(C)CC(=O)C(OC(=O)CC(=O)OC5=C(C)[C@@H]6C[C@H]7OC(=O)[C@H](OC(=O)/C=C(\C)C(C)C)[C@H]8[C@]9(C(=O)OC)OC[C@]78[C@H]([C@@H](O)[C@@H]9O)[C@@]6(C)CC5=O)=C(C)[C@@H]1C[C@H]3OC(=O)[C@H](OC(=O)/C=C(\C)C(C)C)[C@@H]24
T/C (dose: 0.19 mg/kg/injection, schedule: Q01DX009 (ip), vehicle: saline + Tween-80 + alcohol): 121 % of control | T/C (dose: 0.37 mg/kg/injection, schedule: Q01DX005 (ip), vehicle: saline + Tween-80 + alcohol): 119 % of control | T/C (dose: 0.38 mg/kg/injection, schedule: Q01DX005 (ip), vehicle: saline + Tween-80 + alcohol): 110 % of control | T/C (dose: 0.38 mg/kg/injection, schedule: Q01DX009 (ip), vehicle: saline + Tween-80 + alcohol): 120 % of control | T/C (dose: 0.75 mg/kg/injection, schedule: Q01DX005 (ip), vehicle: saline + Tween-80 + alcohol): 114 % of control | T/C (dose: 0.75 mg/kg/injection, schedule: Q01DX009 (ip), vehicle: saline + Tween-80 + alcohol): 124 % of control | T/C (dose: 1.5 mg/kg/injection, schedule: Q01DX009 (ip), vehicle: saline + Tween-80 + alcohol): 165 % of control | T/C (dose: 3.0 mg/kg/injection, schedule: Q01DX009 (ip), vehicle: saline + Tween-80 + alcohol): 163 % of control

C=CC(C)(C)C1=CC(=O)C(OC)=CC1=O
T/C [10]: 100 % of control | T/C [11]: 103 % of control | T/C (dose: 200.0 mg/kg/injection, schedule: Q01DX005 (ip), vehicle: Klucel (hydroxypropylcellulose) (HPC)): 100 % of control

O=C(COc1cccc2oc3ccccc3c(=O)c12)N/N=C/c1ccc(N(CCCl)CCCl)cc1
T/C (dose: 60.0 mg/kg/injection, schedule: Q01DX005 (ip), vehicle: Klucel (hydroxypropylcellulose) (HPC)): 97 % of control | T/C (dose: 120.0 mg/kg/injection, schedule: Q01DX005 (ip), vehicle: Klucel (hydroxypropylcellulose) (HPC)): 96 % of control | T/C (dose: 240.0 mg/kg/injection, schedule: Q01DX005 (ip), vehicle: Klucel (hydroxypropylcellulose) (HPC)): 95 % of control

CN(C)CCCOC1(Cc2ccc(F)cc2)CCCCCC1
T/C (dose: 50.0 mg/kg/injection, schedule: Q01DX005 (ip), vehicle: saline with Tween-80): 102 % of control | T/C (dose: 100.0 mg/kg/injection, schedule: Q01DX005 (ip), vehicle: saline with Tween-80): 102 % of control

CC(C)CC(NC(=O)C(Cc1ccccc1)NC(=O)CNC(=O)CNC(=O)C(N)Cc1ccc(O)cc1)C(=O)O (configuration not stated)
T/C (dose: 12.5 mg/kg/injection, schedule: Q01DX005 (ip), vehicle: water): 110 % of control | T/C (dose: 25.0 mg/kg/injection, schedule: Q01DX005 (ip), vehicle: water): 103 % of control | T/C (dose: 50.0 mg/kg/injection, schedule: Q01DX005 (ip), vehicle: water): 95 % of control | T/C (dose: 100.0 mg/kg/injection, schedule: Q01DX005 (ip), vehicle: water): 98 % of control | T/C (dose: 200.0 mg/kg/injection, schedule: Q01DX005 (ip), vehicle: water): 100 % of control

O=C(O)[C@@H]1[C@H]2C[C@H]3c4[nH]c5ccccc5c4CCN3C[C@@H]2CC[C@@H]1O
T/C (dose: 25.0 mg/kg/injection, schedule: Q01DX009 (ip), vehicle: Klucel (hydroxypropylcellulose) (HPC)): 87 % of control | T/C [7]: 88 % of control | T/C [8]: 100 % of control | T/C [9]: 101 % of control

Cc1cc(N=[N+]=[N-])c2ccc(Cl)cc2n1
T/C [12]: 94 % of control | T/C [13]: 100 % of control

CC(=O)CCCCCCCCCCCCCCC1=C(C)C(=O)OC1=O
T/C (dose: 25.0 mg/kg/injection, schedule: Q01DX005 (ip), vehicle: Klucel (hydroxypropylcellulose) (HPC)): 103 % of control | T/C [10]: 99 % of control | T/C [11]: 89 % of control | T/C (dose: 400.0 mg/kg/injection, schedule: Q01DX005 (ip), vehicle: Klucel (hydroxypropylcellulose) (HPC)): 96 % of control

CCCCCCCCCCCCCCCC[N+]1([O-])CCCCCC1
T/C [2]: 93 % of control

O=c1c2cncnc2sc2nccn12
T/C [12]: 99 % of control | T/C [13]: 98 % of control | T/C (dose: 240.0 mg/kg/injection, schedule: Q01DX005 (ip), vehicle: saline with Tween-80): 95 % of control

CCCCCCCCCC(=O)C(=O)c1ccc(O)c(C)c1O
T/C [7]: 94 % of control | T/C [8]: 94 % of control | T/C [9]: 94 % of control

O=C(c1ccc(OCC(O)CN2CCN(c3ccccc3)CC2)cc1)c1cc2ccccc2c2ccccc12 (configuration not stated)
T/C (dose: 100.0 mg/kg/injection, schedule: Q04DX003 (ip), vehicle: alcohol): 106 % of control | T/C (dose: 100.0 mg/kg/injection, schedule: Q04DX003 (ip), vehicle: other): 109 % of control | T/C (dose: 200.0 mg/kg/injection, schedule: Q04DX003 (ip), vehicle: alcohol): 120 % of control | T/C (dose: 200.0 mg/kg/injection, schedule: Q04DX003 (ip), vehicle: other): 105 % of control

CCN(CC)[P+](C1=C(Cl)C(=O)C(C#N)=C(C#N)C1=O)(N(CC)CC)N(CC)CC
T/C (dose: 3.1 mg/kg/injection, schedule: Q01DX009 (ip), vehicle: saline with Tween-80): 108 % of control | T/C (dose: 6.25 mg/kg/injection, schedule: Q01DX009 (ip), vehicle: saline with Tween-80): 99 % of control | T/C (dose: 12.5 mg/kg/injection, schedule: Q01DX009 (ip), vehicle: saline with Tween-80): 99 % of control | T/C (dose: 25.0 mg/kg/injection, schedule: Q01DX009 (ip), vehicle: saline with Tween-80): 87 % of control | T/C [1]: 101 % of control
